From patent US20100075960A1 (priority 2006, published 2010)

Legend:
Format in all cases: cell-based
SKOV-3 = assay: Inhibition of cell proliferation, SKOV-3; details: Homo sapiens, SK-OV-3; Ovarian; 72 h; methylene blue or CellTiter-Glo
Description: (§1) II. Inhibition of Cell Proliferation by PLK1 Inhibitors.
(§2) Exponentially growing cell lines of different tumor origins, cultured in appropriate media containing 10% fetal bovine serum at 37° C. in a 5% CO2 incubator were plated in 96 or 384-well plates. Twenty four hours post-plating, cells were treated with different concentrations of test compounds ranging from 20 μM to 0.04 nM. Several wells were left untreated as a control. Seventy two hours post-treatment, cell numbers were determined using different techniques; 100 μl per well of methylene blue (Sigma M9140) (0.5% in 50:50 Ethanol:water), or 10-100 μl per well of CellTiter-Glo (Promega #G7573), depending on well size. For methylene blue staining, stain was incubated at room temperature for 30 minutes before plates were rinsed and dye solubilized in 1% N-lauroyl sarcosine, sodium salt, (Sigma L5125, in PBS). Plates were read on a microplate reader, measuring the OD at 620 nm. For CellTiter-Glo, plates were incubated at room temperature for 15 minutes and the chemiluminescent signal was read on the Victor V or Envison 2100 reader.
(§3) Percent inhibition of cell growth was expressed as percent proliferation relative to 100% proliferation (control). Concentration of test compound that inhibited 50% of cell growth (IC50) was determined by 4 parameter fit of data using XLfit, (value of no cell control was substracted from all samples for background). The data are shown in Table 1 and Table 2 below and represent a compilation of several different experiments each performed using the general parameters outlined above, although minor variations may have been employed in some instances, in Table 1 and Table 2, +=IC50>1 μM; ++=IC50 0.5-1 μM: +++=IC50<0.5 μM.

P388 = assay: Inhibition of cell proliferation, P388; details: Mouse leukemia, 72 h, methylene blue or CellTiter-Glo
Description: as §1, §2, §3

COLO205 = assay: Inhibition of cell proliferation, COLO205; details: Homo sapiens, COLO 205; Colon; 72 h; methylene blue or CellTiter-Glo
Description: as §1, §2, §3

HCT116 = assay: Inhibition of cell proliferation, HCT116; details: Homo sapiens, HCT-116; 72 h treatment; methylene blue or CellTiter-Glo
Description: as §1, §2, §3

HT29 = assay: Inhibition of cell proliferation, HT29; details: Homo sapiens, HT-29; Colon; 72 h; methylene blue or CellTiter-Glo
Description: as §1, §2, §3

MX-1 = assay: Inhibition of cell proliferation, MX-1; details: Homo sapiens, MX1; Breast; 72 h; methylene blue or CellTiter-Glo
Description: as §1, §2, §3

| Compound | IC50 (HCT116) | also measured |
| --- | --- | --- |
| C[C@@H](Oc1cc(-n2cnc3cc(Cl)ccc32)sc1C(N)=O)c1cccc(OC2CCN(C)CC2)c1Cl [Example 3, 5-(5-Chloro-1H-benzimidazol-1-yl)-3-((1R)-1-{2-chloro-3-[(1-methylpiperidin-4-yl)oxy]phenyl}ethoxy)thiophene-2-carboxamide] | < 500 nM | IC50 (SKOV-3): < 500 nM; IC50 (P388): < 500 nM; IC50 (COLO205): < 500 nM; IC50 (HT29): < 500 nM; IC50 (MX-1): < 500 nM |
| Cc1cc(-c2ccc3c(c2)ncn3-c2cc(O[C@H](C)c3cccc(OC4CCNCC4)c3Cl)c(C(N)=O)s2)ccn1 [Example 49, 3-({(1R)-1-[2-Chloro-3-(4-piperidinyloxy)phenyl]ethyl}oxy)-5-[5-(2-methyl-4-pyridinyl)-1H-benzimidazol-1-yl]-2-thiophenecarboxamide] | < 500 nM | IC50 (SKOV-3): < 500 nM; IC50 (COLO205): < 500 nM; IC50 (HT29): < 500 nM; IC50 (MX-1): < 500 nM |
| Cc1cc(-c2ccc3c(c2)ncn3-c2cc(O[C@H](C)c3cccc(OC4CCN(C)CC4)c3Cl)c(C(N)=O)s2)ccn1 [Example 50, 3-[((1R)-1-{2-Chloro-3-[(1-methyl-4-piperidinyl)oxy]phenyl}ethyl)oxy]-5-[5-(2-methyl-4-pyridinyl)-1H-benzimidazol-1-yl]-2-thiophenecarboxamide] | < 500 nM |  |
| C[C@@H](Oc1cc(-n2cnc3cc(Br)ccc32)sc1C(N)=O)c1cccc(OC2CCN(C)CC2)c1Cl [Example 51, 5-(5-Bromo-1H-benzimidazol-1-yl)-3-[((1R)-1-{2-chloro-3-[(1-methyl-4-piperidinyl)oxy]phenyl}ethyl)oxy]-2-thiophenecarboxamide] | < 500 nM |  |
| C[C@@H](Oc1cc(-n2cnc3ccc(Cl)cc32)sc1C(N)=O)c1cccc(OC2CCNCC2)c1Cl [Example 52, 5-(6-Chloro-1H-benzimidazol-1-yl)-3-({(1R)-1-[2-chloro-3-(4-piperidinyloxy)phenyl}ethyl)oxy)-2-thiophenecarboxamide] | < 500 nM |  |
| C[C@@H](Oc1cc(-n2cnc3ccc(Cl)cc32)sc1C(N)=O)c1cccc(OC2CCN(C)CC2)c1Cl [Example 53, 5-(6-Chloro-1H-benzimidazol-1-yl)-3-[((1R)-1-(2-chloro-3-([1-methyl-4-piperidinyl)oxy]phenyl)}oxy]-2-thiophenecarboxamide] | < 500 nM |  |
| C[C@@H](Oc1cc(-n2cnc3ccc(CS(C)(=O)=O)cc32)sc1C(N)=O)c1cccc(OC2CCNCC2)c1Cl [Example 54] | > 1000 nM |  |
| C[C@@H](Oc1cc(-n2cnc3ccc(CS(C)(=O)=O)cc32)sc1C(N)=O)c1cccc(OC2CCN(C)CC2)c1Cl [Example 55, 3-[((1R)-1-(2-chloro-3-[(1-methyl-4-piperidinyl)oxy]phenyl}ethyl)oxy]-5-(6-[(methylsulfonyl)methyl]1H-benzimidazol-1-yl}-2-thiophenecarboxamide] | > 1000 nM |  |
| C[C@@H](Oc1cc(-n2cnc3ccc(CS(C)(=O)=O)cc32)sc1C(N)=O)c1cccc(OCC2CCNCC2)c1Cl [Example 56, 3-[((1R)-1-{2-chloro-3-[(4-piperidinylmethyl)oxy]phenyl}ethyl)oxy]-5-{6-[(methylsulfonyl)-methyl]-1H-benzimidazol-1-yl}-2-thiophenecarboxamide] | > 1000 nM |  |
| C[C@@H](Oc1cc(-n2cnc3ccc(CS(C)(=O)=O)cc32)sc1C(N)=O)c1cccc(OCC2CCCN2C)c1Cl (stereo partly drawn) [Example 57] | > 1000 nM |  |
| C[C@@H](Oc1cc(-n2cnc3cc(OC(F)(F)F)ccc32)sc1C(N)=O)c1cccc(OC2CCNCC2)c1Cl [Example 61] | < 500 nM |  |
| C[C@@H](Oc1cc(-n2cnc3cc(OC(F)(F)F)ccc32)sc1C(N)=O)c1cccc(OC2CCN(C)CC2)c1Cl [Example 62, 3-[((1R)-1-{2-chloro-3-[(1-methyl-4-piperidinyl)oxy]phenyl}ethyl)oxy]-5-{5-[(trifluoromethyl)oxy]-1H-benzimidazol-1-yl}-2-thiophenecarboxamide] | < 500 nM |  |
| C[C@@H](Oc1cc(-n2cnc3ccc(OC(F)(F)F)cc32)sc1C(N)=O)c1cccc(OC2CCNCC2)c1Cl [Example 63, 3-({(1R)-1-[2-chloro-3-(4-piperidinyloxy)phenyl]ethyl}oxy)-5-[6-[(trifluoromethyl)oxy]-1H-1-benzimidazol-1-yl}-2-thiophenecarboxamide] | < 500 nM |  |
| C[C@@H](Oc1cc(-n2cnc3ccc(OC(F)(F)F)cc32)sc1C(N)=O)c1cccc(OC2CCN(C)CC2)c1Cl [Example 64, 3-[((1R)-1-(2-chloro-3-[(1-methyl-4-piperidinyl)oxy]phenyl}ethyl)oxy]-5-{6-[(trifluoromethyl)oxy]-1H-benzimidazol-1-yl}-2-thiophenecarboxamide] | < 500 nM |  |
| C[C@@H](Oc1cc(-n2cnc3cc(F)c(F)cc32)sc1C(N)=O)c1cccc(OC2CCNCC2)c1Cl [Example 65, 3-({(1R)-1-[2-chloro-3-(4-piperidinyloxy)phenyl]ethyl}oxy)-5-(5,6-difluoro-1H-benzimidazol-1-yl)-2-thiophenecarboxamide] | < 500 nM |  |
| C[C@@H](Oc1cc(-n2cnc3cc(Cl)c(F)cc32)sc1C(N)=O)c1cccc(OC2CCNCC2)c1Cl [Example 67] | < 500 nM |  |
| C[C@@H](Oc1cc(-n2cnc3cc(Cl)c(F)cc32)sc1C(N)=O)c1cccc(OC2CCN(C)CC2)c1Cl [Example 68, 5-(5-Chloro-6-fluoro-1H-benzimidazol-1-yl)-3-[((1R)-1-{2-chloro-3-[(1-methyl-4-piperidinyl)oxy]phenyl}ethyl)oxy]-2-thiophenecarboxamide] | < 500 nM |  |
| C[C@@H](Oc1cc(-n2cnc3cc(F)c(Cl)cc32)sc1C(N)=O)c1cccc(OC2CCNCC2)c1Cl [Example 69, 5-(6-Chloro-5-fluoro-1H-benzimidazol-1-yl)-3-({(1R)-1-[2-chloro-3-(4-piperidinyloxy)phenyl]ethyl}oxy)-2-thiophenecarboxamide] | < 500 nM |  |
| C[C@@H](Oc1cc(-n2cnc3cc(F)c(Cl)cc32)sc1C(N)=O)c1cccc(OC2CCN(C)CC2)c1Cl [Example 70, 5-(6-Chloro-5-fluoro-1H-benzimidazol-1-yl)-3[((1R)-1-(2-chloro-3-[(1methyl-4-piperidinyl)oxy]phenyl}ethyl)oxy]-2-thiophenecarboxamide] | < 500 nM |  |
| C[C@@H](Oc1cc(-n2cnc3cc(Cl)c(Cl)cc32)sc1C(N)=O)c1cccc(OC2CCNCC2)c1Cl [Example 71, 3-({(1R)-1-[2-Chloro-3-(4-piperidinyloxy)phenyl]ethyl}oxy)-5-(5,6-dichloro-1H-benzimidazol-1-yl)-2-thiophenecarboxamide] | < 500 nM |  |
| C[C@@H](Oc1cc(-n2cnc3cc(Cl)c(Cl)cc32)sc1C(N)=O)c1cccc(OC2CCN(C)CC2)c1Cl [Example 72, 3-[((1R)-1-(2-chloro-3-[(1-methyl-4-piperidinyl)oxy]phenyl}ethyl)oxy]-5-(5,6-dichloro-1H-benzimidazol-1-yl)-2-thiophenecarboxamide] | < 500 nM |  |
| CC(Oc1cc(-n2cnc3cc(-c4cnn(C)c4)ccc32)sc1C(N)=O)c1ccnc(OC2CCN(C)CC2)c1 (stereo not drawn) [Example 80] | > 1000 nM |  |
| Cn1cc(-c2ccc3c(c2)ncn3-c2cc(OCc3cccc(OC4CCNCC4)c3)c(C(N)=O)s2)cn1 [Example 83, 5-[5-(1-Methyl-1H-pyrazol-4-yl)-1H-benzimidazol-1-yl]-3-({[3-(4-piperidinyloxy)phenyl]methyl}oxy)-2-thiophenecarboxamide] | > 1000 nM |  |
| CN1CCC(Oc2cccc(COc3cc(-n4cnc5cc(-c6cnn(C)c6)ccc54)sc3C(N)=O)c2)CC1 [Example 84, 3-[({3-[(1Methyl-4piperidinyl)oxy]phenyl}methyl)oxy]-5-[5-(1-methyl-1H-pyrazol-4-yl)-1H-benzimidazol-1-yl]-2-thiophenecarboxamide] | 500 to 1000 nM |  |
| CC(Oc1cc(-n2cnc3cc(-c4cnn(C)c4)ccc32)sc1C(N)=O)c1cc(OC2CCNCC2)ccn1 (stereo not drawn) [Example 85, 5-[5-(1-Methyl-1H-pyrazol-4-yl)-1H-benzimidazol-1-yl]-3-({1-[4-(4-piperidinyloxy)-2-pyridinyl]ethyl}oxy)-2-thiophenecarboxamide] | > 1000 nM |  |
| Cc1nnc(-c2ccc3c(c2)ncn3-c2cc(O[C@H](C)c3cccc(OC4CCNCC4)c3Cl)c(C(N)=O)s2)o1 [Example 87, 3-({(1R)-1-(2-Chloro-3-(4-piperidinyloxy)phenyl]ethyl}oxy)-5-[5-(5-methyl-1,3,4-oxadiazol-2-yl)-1H-benzimidazol-1-yl]-2-thiophenecarboxamide] | < 500 nM |  |
| Cc1nnc(-c2ccc3c(c2)ncn3-c2cc(O[C@H](C)c3cccc(OC4CCN(C)CC4)c3Cl)c(C(N)=O)s2)o1 [Example 88] | < 500 nM |  |
